Test results reported in ChEMBL document CHEMBL5370659 (J Med Chem, 2023).
Active and inactive are the calls of the source. The rule behind the calls is not given here.

Key:
[1] = Metabolic stability in rat hepatocytes assessed as intrinsic clearance; assay type: ADME, cell-based, Hepatocyte; settings: read-out: CLH
[2] = Tmax in Sprague-Dawley rat at 20 mg/kg, po measured upto 1440 mins by LC-MS/MS analysis; assay type: ADME, organism-based; settings: in vivo
[3] = system: Mus musculus; assay: Effect on total duration of immobility in C57BL/6N mouse at 50 mg/kg, po treated for 14 days by tail suspension test; assay type: functional, organism-based; settings: time 14.0 day
[4] = Tlast in Sprague-Dawley rat at 20 mg/kg, po measured upto 1440 mins by LC-MS/MS analysis; assay type: ADME, organism-based; settings: in vivo, 24 h
[5] = Toxicity in C57BL/6N mouse assessed as general toxic effects at 1.5 to 15 mg/kg, po bid treated for 7 days; assay type: organism-based; settings: in vivo, 168 h, dose 1.5-15 mg/kg, time 7 day
[6] = Permeability across basal to apical side in MDCK-MDR1 cells at pH 6.5/7.4 measured at 5 uM by LC-MS/MS analysis; assay type: ADME, cell-based, Canis lupus familiaris; settings: dog, MDCK-MDR1, pH 6.5
[7] = Drug uptake in Sprague-Dawley rat lung at 50 mg/kg, po measured at 2 hrs by LC-MS/MS analysis; assay type: ADME, organism-based; settings: read-out: Drug uptake
[8] = system: Mus musculus; assay: Effect on total duration of immobility in C57BL/6N mouse at 10 mg/kg, po treated for 14 days by tail suspension test; assay type: functional, organism-based; settings: time 14.0 day
[9] = Metabolic stability in human hepatocytes assessed as half life; assay type: ADME, cell-based, Hepatocyte
[10] = system: MC-38; assay: Antitumor activity against mouse MC-38 cells subcutaneously transplanted in C57BL/6N mouse assessed as reduction in AUC of tumor growth at 50 mg/kg, po bid measured on day 20 relative to control; assay type: functional; settings: MC-38, 480 h, route sc, time 20 day
[11] = Plasma concentration in Sprague-Dawley rat at 50 mg/kg, po measured at 2 hrs by LC-MS/MS analysis; assay type: ADME, organism-based
[12] = target: T1, Tryptophan 5-hydroxylase 1 (Homo sapiens, UniProt P17752); assay: Inhibition of THP1 in human serotonergic BON cells assessed as reduced the intracellular serotonin levels incubated for 72 hrs; assay type: cell-based
T1 sequence (P17752 whole entry): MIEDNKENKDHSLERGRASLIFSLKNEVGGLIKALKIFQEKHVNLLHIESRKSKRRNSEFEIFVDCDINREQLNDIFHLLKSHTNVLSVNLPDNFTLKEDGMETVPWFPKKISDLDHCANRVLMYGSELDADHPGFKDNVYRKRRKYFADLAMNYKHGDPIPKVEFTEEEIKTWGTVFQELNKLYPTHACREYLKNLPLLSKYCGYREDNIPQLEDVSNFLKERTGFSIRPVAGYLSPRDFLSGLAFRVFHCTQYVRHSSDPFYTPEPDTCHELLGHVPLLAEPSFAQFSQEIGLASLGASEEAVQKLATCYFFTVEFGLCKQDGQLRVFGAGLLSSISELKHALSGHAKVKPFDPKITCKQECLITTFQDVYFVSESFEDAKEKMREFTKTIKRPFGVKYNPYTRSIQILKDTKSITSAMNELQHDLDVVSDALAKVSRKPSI

[13] = Drug uptake in Sprague-Dawley rat brain at 20 mg/kg, po measured at 2 hrs by LC-MS/MS analysis; assay type: ADME, organism-based; settings: in vivo, BLD = below limit of detection
[14] = system: Mus musculus; assay: Effect on C57BL/6N mouse assessed as brain serotonin turnover measuring 5-HIAA/5-HT ratio at 1.5 to 50 mg/kg, po bid treated for 6 to 7 days; assay type: functional, organism-based; settings: dose 1.5-50 mg/kg, time 6-7 day
[15] = AUCExtra in Sprague-Dawley rat at 50 mg/kg, po measured upto 1440 mins by LC-MS/MS analysis; assay type: ADME, organism-based; settings: in vivo, 24 h
[16] = Half life in Sprague-Dawley rat at 10 mg/kg, iv measured upto 1440 mins by LC-MS/MS analysis; assay type: ADME, organism-based; settings: in vivo
[17] = MRT (0 to infinitive) in CD-1 (ICR) mouse at 50 mg/kg, po measured upto 1440 mins by LC-MS/MS analysis; assay type: ADME, organism-based; settings: in vivo
[18] = Mutagenicity in Salmonella typhimurium TA100 in presence or absence of rat liver S9 fraction by Ames test; assay type: toxicity; settings: salmonella enterica subsp. enterica serovar typhimurium
[19] = target: ATP-dependent translocase ABCB1 (Homo sapiens, UniProt P08183); assay: Inhibition of P-gp in human Caco-2 cells seeded in polyethylene membranes assessed as permeation in presence or absence of digoxin measured for 2 hrs by LC-MS/MS analysis based transporter assay; assay type: cell-based
[20] = Cytotoxicity against human serotonergic BON cells assessed as cell viability at 300 uM incubated for 72 hrs by WST-1 assay; assay type: toxicity, cell-based
[21] = Drug uptake in CD-1 (ICR) mouse brain at 50 mg/kg measured 2 hrs by LC-MS/MS analysis; assay type: ADME, organism-based; settings: read-out: Drug uptake
[22] = AUC (0 to last) in Sprague-Dawley rat at 20 mg/kg, po measured upto 1440 mins by LC-MS/MS analysis; assay type: ADME, organism-based; set-up: time < 1440 min, dose 20 mg/kg, route po; settings: in vivo
[23] = system: Mus musculus; assay: Effect on C57BL/6N mouse assessed as brain serotonin turnover measuring 5-HT/TRP ratio at 1.5 to 50 mg/kg, po bid treated for 6 to 7 days; assay type: functional, organism-based; settings: dose 1.5-50 mg/kg, time 6-7 day
[24] = system: MC-38; assay: Antitumor activity against mouse MC-38 cells subcutaneously transplanted in C57BL/6N mouse assessed as reduction in absolute tumor volume at 50 mg/kg, po bid measured on day 13 relative to control; assay type: functional; settings: MC-38, 312 h, route sc, time 13 day
[25] = AUC (0 to infinitive) in Sprague-Dawley rat at 50 mg/kg, po measured upto 1440 mins by LC-MS/MS analysis; assay type: ADME, organism-based; set-up: dose 50 mg/kg, time < 1440 min, route po; settings: in vivo
[26] = Toxicity in C57BL/6N mouse assessed as body weight change at 1.5 to 15 mg/kg, po bid treated for 7 days; assay type: organism-based; settings: in vivo, 168 h, dose 1.5-15 mg/kg, time 7 day
[27] = target: T1, Tryptophan 5-hydroxylase 1; assay: Binding affinity to […] (unknown origin) assessed as equilibrium dissociation constant by surface plasmon resonance analysis
[28] = Tmax in CD-1 (ICR) mouse at 50 mg/kg, po measured upto 1440 mins by LC-MS/MS analysis; assay type: ADME, organism-based; settings: in vivo
[29] = system: Mus musculus; assay: Effect on total travelled distance of C57BL/6N mouse at 20 mg/kg, po treated for 14 days by locomotor activity test; assay type: functional, organism-based; settings: time 14.0 day
[30] = target: Voltage-gated inwardly rectifying potassium channel KCNH2 (Homo sapiens, UniProt Q12809); assay: Inhibition of hERG channel expressed in CHO cells by whole-cell patch clamp assay; assay type: toxicity, cell-based
[31] = Metabolic stability in human hepatocytes assessed as intrinsic clearance; assay type: ADME, cell-based, Hepatocyte; settings: read-out: CLH
[32] = MRT (0 to last) in Sprague-Dawley rat at 20 mg/kg, po measured upto 1440 mins by LC-MS/MS analysis; assay type: ADME, organism-based; settings: in vivo
[33] = Tlast in CD-1 (ICR) mouse at 50 mg/kg, po measured upto 1440 mins by LC-MS/MS analysis; assay type: ADME, organism-based; settings: in vivo, 24 h
[34] = AUC (0 to last) in Sprague-Dawley rat at 50 mg/kg, po measured upto 1440 mins by LC-MS/MS analysis; assay type: ADME, organism-based; set-up: dose 50 mg/kg, time < 1440 min, route po; settings: in vivo
[35] = target: T2, Tryptophan 5-hydroxylase 1 (Homo sapiens) (UniProt P17752); assay: Binding affinity to […] (unknown origin) assessed as dissociation rate constant by surface plasmon resonance analysis
T2 sequence (whole entry): T1 sequence (P17752 whole entry)

Chain of Voltage-gated inwardly rectifying potassium channel KCNH2 (Q12809 whole entry): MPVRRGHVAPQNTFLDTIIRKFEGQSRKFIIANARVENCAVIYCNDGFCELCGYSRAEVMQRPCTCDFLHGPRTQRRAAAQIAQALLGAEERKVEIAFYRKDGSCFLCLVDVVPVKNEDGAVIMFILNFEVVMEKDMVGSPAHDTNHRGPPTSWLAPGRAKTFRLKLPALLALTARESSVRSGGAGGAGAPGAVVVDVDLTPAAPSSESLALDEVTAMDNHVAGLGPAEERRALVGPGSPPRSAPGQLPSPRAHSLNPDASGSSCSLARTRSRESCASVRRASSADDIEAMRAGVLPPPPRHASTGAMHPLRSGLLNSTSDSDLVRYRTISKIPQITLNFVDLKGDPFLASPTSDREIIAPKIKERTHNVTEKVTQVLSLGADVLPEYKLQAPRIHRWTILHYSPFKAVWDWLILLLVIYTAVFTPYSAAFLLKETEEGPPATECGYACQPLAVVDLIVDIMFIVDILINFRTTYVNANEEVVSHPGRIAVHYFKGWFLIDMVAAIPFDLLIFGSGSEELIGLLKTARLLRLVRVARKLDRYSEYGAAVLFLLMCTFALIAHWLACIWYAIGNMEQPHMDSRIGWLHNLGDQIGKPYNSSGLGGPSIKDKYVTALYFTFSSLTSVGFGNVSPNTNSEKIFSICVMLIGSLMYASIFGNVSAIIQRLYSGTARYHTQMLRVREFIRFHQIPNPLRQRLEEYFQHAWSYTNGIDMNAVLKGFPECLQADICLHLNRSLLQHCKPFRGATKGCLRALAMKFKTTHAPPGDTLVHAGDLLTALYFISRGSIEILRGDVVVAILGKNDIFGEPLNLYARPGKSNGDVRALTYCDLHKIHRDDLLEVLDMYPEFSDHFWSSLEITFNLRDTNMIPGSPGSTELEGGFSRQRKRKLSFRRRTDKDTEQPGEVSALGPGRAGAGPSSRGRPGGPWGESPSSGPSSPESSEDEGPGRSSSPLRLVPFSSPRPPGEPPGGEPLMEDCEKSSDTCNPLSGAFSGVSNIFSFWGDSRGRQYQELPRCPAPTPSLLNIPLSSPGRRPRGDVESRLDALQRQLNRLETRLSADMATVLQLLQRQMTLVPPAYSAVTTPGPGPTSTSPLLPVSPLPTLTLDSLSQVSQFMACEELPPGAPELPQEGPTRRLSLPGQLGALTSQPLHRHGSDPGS
Chain of ATP-dependent translocase ABCB1 (P08183 whole entry): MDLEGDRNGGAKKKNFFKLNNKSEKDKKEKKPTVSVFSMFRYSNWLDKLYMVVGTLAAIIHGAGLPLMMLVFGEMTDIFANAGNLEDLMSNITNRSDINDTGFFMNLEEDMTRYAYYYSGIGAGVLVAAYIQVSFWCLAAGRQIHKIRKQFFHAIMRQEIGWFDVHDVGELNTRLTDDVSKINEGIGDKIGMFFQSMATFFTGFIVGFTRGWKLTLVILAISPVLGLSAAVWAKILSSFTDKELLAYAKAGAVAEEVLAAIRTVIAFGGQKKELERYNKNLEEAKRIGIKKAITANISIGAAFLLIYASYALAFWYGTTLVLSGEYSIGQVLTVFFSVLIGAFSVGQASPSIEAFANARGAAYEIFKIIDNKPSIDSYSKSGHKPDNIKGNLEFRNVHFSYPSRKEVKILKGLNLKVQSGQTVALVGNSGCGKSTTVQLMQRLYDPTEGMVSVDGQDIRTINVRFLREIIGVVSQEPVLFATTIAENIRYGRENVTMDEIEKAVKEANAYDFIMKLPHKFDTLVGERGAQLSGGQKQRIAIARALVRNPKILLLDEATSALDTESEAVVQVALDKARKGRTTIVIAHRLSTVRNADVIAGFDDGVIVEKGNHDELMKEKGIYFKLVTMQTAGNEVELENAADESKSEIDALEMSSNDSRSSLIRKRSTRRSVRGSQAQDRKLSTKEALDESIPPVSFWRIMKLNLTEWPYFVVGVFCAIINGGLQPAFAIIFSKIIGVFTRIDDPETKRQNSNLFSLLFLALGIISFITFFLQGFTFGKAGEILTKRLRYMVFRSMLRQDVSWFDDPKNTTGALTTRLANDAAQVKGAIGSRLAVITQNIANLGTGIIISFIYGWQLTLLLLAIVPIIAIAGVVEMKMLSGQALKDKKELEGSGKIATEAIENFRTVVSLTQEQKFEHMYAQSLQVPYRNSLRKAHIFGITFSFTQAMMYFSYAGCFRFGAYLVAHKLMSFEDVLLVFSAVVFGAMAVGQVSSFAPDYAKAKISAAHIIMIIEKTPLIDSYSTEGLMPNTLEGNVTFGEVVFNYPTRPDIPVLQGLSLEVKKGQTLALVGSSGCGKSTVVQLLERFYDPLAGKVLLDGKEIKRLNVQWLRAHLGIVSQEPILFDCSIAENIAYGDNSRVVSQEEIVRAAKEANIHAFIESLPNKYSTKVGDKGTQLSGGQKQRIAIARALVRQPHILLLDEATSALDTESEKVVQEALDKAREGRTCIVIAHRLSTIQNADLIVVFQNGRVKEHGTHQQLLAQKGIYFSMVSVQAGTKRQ

For `CCn1c(=O)[nH]c(=O)c2c1nc(Cc1cn3cc(C)sc3n1)n2CC1COC1`, the CLint scaled [1] was < 17 mL/min/kg, the Tmax [2] was 0.42 h and the Activity [3] was “inactive”. For the same compound, the Tlast [4] was 24 h, the Activity [5] was “Non-Toxic” and the Papp B→A at 5 µM [6] was 15 ×10⁻⁶ cm/s. For the same compound, the concentration at 2 h [7] was 391 ng/g, the Activity [8] was “inactive” and the half-life [9] was > 2.42 h. The inhibition in vivo at 50 mg/kg [10] was 35%, the concentration at 2 h [11] was 1370 ng/mL and the IC50 [12] was 952 nM. The Drug uptake [13] was “Bld”, the Activity [14] was “inactive” and the “%AUCextra” value [15] was 0.44%. For the same compound, the half-life [16] was 3.39 h, the MRT inf [17] was 1.65 h and the Activity [18] was “Non-Toxic”. The IC50 [19] was > 100000 nM, the Activity [20] was “Non-Toxic” and the concentration at 2 h [21] was 46 ng/g. The AUC(0-t) at 24 h [22] was 3300 ng·h/mL, the Activity [23] was “inactive” and the inhibition in vivo at 50 mg/kg [24] was 50%. For the same compound, the AUC(0-inf) [25] was 8220 ng·h/mL, the Activity [26] was “Non-Toxic” and the Kd [27] was 3.2 nM. For the same compound, the Tmax [28] was 0.333 h, the Activity [29] was “inactive” and the IC50 [30] was > 30000 nM. The CLint scaled [31] was < 8.6 mL/min/kg, the MRT last at 24 h [32] was 2.91 h and the Tlast [33] was 12 h. It also gave an AUC(0-t) at 24 h [34] of 8180 ng·h/mL and a Kdiss [35] of 0.007 s⁻¹.
